From patent publication US4213999A, “Inhibition of lipogenesis” (Shell Oil Company, priority 1979, dated 1980) come the findings set out here.

For this assay, the system named is lipogenesis in swine adipose tissue. As to the kind of experiment: Inhibition of lipogenesis (lipid synthesis from glucose-U^14 C) in swine adipose tissue slices. The format is cell-based. The following applies: Sus scrofa, 100 micrograms per milliliter of incubation mixture, 37° C., 2 hours, 300 microunits of insulin, 5% DMSO, triplicate, read-out: Percent Inhibition of lipogenesis (lipid synthesis) compared to control tests. The text has this:
The manner in which they cause this effect is not known with certainty; it is believed that they interfere with the synthesis of fatty acids in the tissues. Their effectiveness for this purpose has been ascertained by immersing samples of swine adipose tissue in a liquid medium containing radioactive glucose and the test chemical for a period of time, then isolating the lipid from the treated tissue and determining the uptake of the radioactive carbon by means of scintillation counting techniques. These tests were conducted in swine adipose tissue because in swine, the primary site of lipogenesis--i.e., fatty acid synthesis--appears to be adipose tissue.
Described in more detail, the tests were conducted according to the following general procedure:
150 milligrams of slices of swine adipose tissue were incubated at 37° C. for 2 hours with shaking in 3 milliliters of Krebs-Ringer bicarbonate solution containing one-half of the normal calcium ion concentration, 60 micromoles of glucose, 0.5 micro-Curie of glucose-U^14 C, and 300 microunits of insulin, and 5% dimethyl sulfoxide (DMSO). The test compound was added as a solution or suspension in DMSO and was present as a concentration of 100 micrograms per milliliter of incubation mixture.
The incubation was terminated by addition of 0.25 milliliter of 1 N sulfuric acid. The resulting mixture was extracted with a total of 25 milliliters of chloroform:methanol (2:1, v/v). The extracts were washed according to Folch et al. (J. Biol. Chem., 226, 497-509, (1957)), air dried, and counted in a liquid scintillation counter with 15 milliliters of counting fluid (two parts toluene containing 0.4% w/v New England Nuclear Omnifluor: 1 part Triton X-100). The tests were conducted in triplicate and were accompanied by control tests in which all ingredients,proportions and conditions were the same except that no test compound was included. From the data obtained were calculated the percent inhibition of lipid synthesis by the test compound. The data obtained are reported as the percent inhibition of lipogenesis compared to the results obtained in the control tests wherein only the test compound was omitted.
By inhibition is commonly meant the share of the control response that was lost under treatment. In the case of `CCOC(=O)c1cc2cc(Cc3ccccc3)ccc2o1` [Compound 1, Ethyl 5-benzylbenzofuran-2-carboxylate], the inhibition at 100 µg/mL was determined as 45%.

As to `CCCCCCOc1ccc2oc(C(=O)OCC)cc2c1` [Compound 2], the inhibition at 100 µg/mL was found to be 23%.

On to `CCOC(=O)c1cc2cc(C(=O)c3ccccc3)ccc2o1` [Compound 3], for which the inhibition at 100 µg/mL worked out at 47%.

As to `CCOC(=O)c1cc2c(Oc3ccccc3)cccc2o1` [Compound 4, Ethyl 4-phenoxybenzofuran-2-carboxylate], the inhibition at 100 µg/mL was found to be 28%.

Consider `CCOC(=O)c1cc2cc(-c3ccc(C(C)=O)cc3)ccc2o1` [Compound 5, Ethyl 5-(4-acetylphenyl)benzofuran-2-carboxylate], for which the inhibition at 100 µg/mL came out at 24%.

`CCOC(=O)c1cc2cc(-c3ccc(OC(C)=O)cc3)ccc2o1` [Compound 6, Ethyl 5-(4-acetyloxyphenyl)benzofuran-2-carboxylate]: the inhibition at 100 µg/mL is 56%.

Regarding `CCOC(=O)c1cc2cc(-c3ccc(C(C)O)cc3)ccc2o1` (stereo not drawn) [Compound 7, Ethyl 5-(4-(1-hydroxyethyl)phenyl)benzofuran-2-carboxylate], the inhibition at 100 µg/mL is 71%.

`CCOC(=O)c1cc2cc(-c3ccc(NC(C)=O)cc3)ccc2o1` [Compound 8]: the inhibition at 100 µg/mL came to 52%.

`CCOC(=O)c1cc2cc(-c3ccc(N)cc3)ccc2o1` [Compound 9, Ethyl 5-(4-aminophenyl)benzofuran-2-carboxylate]: the inhibition at 100 µg/mL amounted to 45%.

Regarding `CCOC(=O)C1Cc2cc(-c3ccccc3)ccc2O1` (stereo not drawn) [Compound 10, Ethyl 2,3-dihydro-5-phenylbenzofuran-2-carboxylate], the inhibition at 100 µg/mL is 21%.

With `CCOC(=O)C1Cc2cc(Cc3ccccc3)ccc2O1` (stereo not drawn) [Compound 11], the inhibition at 100 µg/mL is 40%.

With `C=CCOC(=O)C1Cc2cc(Cc3ccccc3)ccc2O1` (stereo not drawn) [Compound 12], the inhibition at 100 µg/mL was 36%.

With `CCOC(=O)C1Cc2c(Oc3ccccc3)cccc2O1` (stereo not drawn) [Compound 13], the inhibition at 100 µg/mL came out at 20%.

In the case of `COC(=O)C1Cc2cc(-c3ccc(C(C)O)cc3)ccc2O1` (stereo not drawn) [Compound 14], the inhibition at 100 µg/mL came out at 85%.

Consider `CCOC(=O)C1Cc2cc(-c3ccc(NC(C)=O)cc3)ccc2O1` (stereo not drawn) [Compound 15], for which the inhibition at 100 µg/mL came to 88%.

On to `CCOC(=O)C1Cc2cc(C3CCCCC3)ccc2O1` (stereo not drawn) [Compound 16], for which the inhibition at 100 µg/mL was determined as 21%.

Take `CCOC(=O)C1Cc2ccc(Oc3ccccc3)cc2O1` (stereo not drawn) [Compound 17]: the inhibition at 100 µg/mL is 29%.

`CCOC(=O)C1Cc2cc(-c3ccc(Cl)cc3)ccc2O1` (stereo not drawn) [Compound 18, Ethyl 2,3-dihydro-5-(4-chlorophenyl)benzofuran-2-carboxylate]: the inhibition at 100 µg/mL was 28%.
